In the CheMixHub drug solubility set:

Assay: xn = mol fraction of the nth substance listed, in the solute-free solvent

Cl.N=C(N)N + CN1CCCC1=O + CCCO
solubility (g/100 g solution)
Details | 278.15 K | 283.15 K | 288.15 K | 293.15 K | 298.15 K | 303.15 K | 308.15 K | 313.15 K | 318.15 K | 323.15 K
x2 = 0.06317 | 8.4 | 9.4 | 10.7 | 11.5 | 12.7 | 13.3 | 15.1 | 16.1 | 17.7 | 18.6
x2 = 0.2064 | 15.9 | 17 | 17.8 | 19.2 | 20.1 | 21.4 | 22.1 | 23.2 | 24.7 | 25.3
x2 = 0.3774 | 28.5 | 29.2 | 30.4 | 31 | 32.1 | 32.6 | 33.7 | 34.4 | 35.4 | 35.9
x2 = 0.5858 | 37.2 | 37.8 | 39.1 | 40.2 | 41.4 | 42.1 | 43.4 | 44.3 | 46 | 47.3
x2 = 0.845 | 41.9 | 43.3 | 44.2 | 45.5 | 46.7 | 47.9 | 49.3 | 50.4 | 52.6 | 53.1

c1ccc2[nH]c(-c3cscn3)nc2c1 + CC#N + O
solubility (g/100 g solution)
Details | 283.15 K | 288.15 K | 293.15 K | 298.15 K | 303.15 K | 308.15 K | 313.15 K | 318.15 K | 323.15 K
x2 = 0.04651 | 0.00121 | 0.00153 | 0.00195 | 0.00251 | 0.00312 | 0.00391 | 0.00486 | 0.00604 | 0.00759
x2 = 0.0989 | 0.00381 | 0.0048 | 0.0062 | 0.00795 | 0.00993 | 0.0122 | 0.0152 | 0.0184 | 0.0223
x2 = 0.1583 | 0.00804 | 0.0102 | 0.013 | 0.0163 | 0.0204 | 0.0251 | 0.0307 | 0.0373 | 0.0446
x2 = 0.2264 | 0.0137 | 0.0175 | 0.0219 | 0.027 | 0.0332 | 0.0403 | 0.0487 | 0.0587 | 0.0699
x2 = 0.3051 | 0.0203 | 0.0246 | 0.0311 | 0.0385 | 0.0467 | 0.0564 | 0.0675 | 0.0804 | 0.0944
x2 = 0.397 | 0.0272 | 0.0332 | 0.0403 | 0.049 | 0.0593 | 0.0713 | 0.0845 | 0.1 | 0.118
x2 = 0.506 | 0.0343 | 0.0409 | 0.0505 | 0.0604 | 0.0718 | 0.0849 | 0.1 | 0.121 | 0.141
x2 = 0.6372 | 0.0418 | 0.0499 | 0.0602 | 0.0732 | 0.0874 | 0.103 | 0.123 | 0.145 | 0.168
x2 = 0.798 | 0.0476 | 0.0573 | 0.0693 | 0.0823 | 0.0998 | 0.118 | 0.14 | 0.163 | 0.188

S=c1[nH]ncs1 + CCO + O
solubility (g/100 g solution)
Details | 278.15 K | 283.15 K | 288.15 K | 293.15 K | 298.15 K | 303.15 K | 308.15 K | 313.15 K | 318.15 K | 323.15 K
x2 = 0.1 | 0.653 | 0.91 | 1.26 | 1.71 | 2.24 | 2.97 | 3.91 | 5.01 | 6.49 | 7.94
x2 = 0.2 | 1.93 | 2.6 | 3.27 | 4.16 | 5.3 | 6.67 | 8.34 | 10.5 | 12.8 | 15.2
x2 = 0.3 | 3.54 | 4.46 | 5.7 | 7.08 | 8.6 | 10.7 | 12.9 | 15.5 | 18.5 | 21.9
x2 = 0.4 | 5.21 | 6.58 | 8.06 | 9.53 | 11.3 | 13.6 | 16.1 | 18.9 | 22.3 | 26
x2 = 0.5 | 6.64 | 8 | 9.61 | 11.3 | 13.3 | 15.6 | 18.1 | 21.1 | 24.5 | 28.1
x2 = 0.6 | 7.53 | 8.92 | 10.7 | 12.4 | 14.4 | 16.5 | 19.2 | 22.3 | 25.4 | 28.5
x2 = 0.7 | 8.26 | 9.5 | 11.2 | 13.1 | 15 | 17.1 | 19.5 | 22.4 | 25.4 | 28
x2 = 0.8 | 8.41 | 10.1 | 11.6 | 13.3 | 15 | 17.2 | 19.5 | 22.1 | 25 | 27.6
x2 = 0.9 | 8.73 | 10.2 | 11.8 | 13.3 | 15.1 | 16.9 | 19.1 | 21.6 | 23.9 | 26.6
